Source: ChEMBL document CHEMBL1149662, “Design and synthesis of a library of tertiary amides: evaluation as mimetics of the melanocortins' active core” (Bioorg Med Chem, 2007)

Assays:
[1] = molecular target: Melanocyte-stimulating hormone receptor (Mus musculus, UniProt Q01727); assay: Displacement of [125I]NDP-MSH from MC1 receptor in mouse B16 cells; type: cell-based
Melanocortin receptor 3 = Melanocortin receptor 3 (Homo sapiens, UniProt P41968); assay: Displacement of [125I]NDP-MSH from human recombinant MC3 receptor expressed in Sf9 cells
Sequence of Melanocortin receptor 3 (P41968 whole entry): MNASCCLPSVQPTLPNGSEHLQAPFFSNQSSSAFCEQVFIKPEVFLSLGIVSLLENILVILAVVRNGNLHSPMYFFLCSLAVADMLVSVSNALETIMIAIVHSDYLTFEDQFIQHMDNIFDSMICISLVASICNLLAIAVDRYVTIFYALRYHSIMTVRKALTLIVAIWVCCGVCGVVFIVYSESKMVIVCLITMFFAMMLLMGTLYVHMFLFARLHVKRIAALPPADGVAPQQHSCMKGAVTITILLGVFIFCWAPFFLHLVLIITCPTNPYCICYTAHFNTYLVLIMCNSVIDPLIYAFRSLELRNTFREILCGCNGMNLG

Melanocortin receptor 4 = Melanocortin receptor 4 (Homo sapiens, UniProt P32245); assay: Displacement of [125I]NDP-MSH from human recombinant MC4 receptor expressed in Sf9 cells
Sequence of Melanocortin receptor 4 (P32245 whole entry): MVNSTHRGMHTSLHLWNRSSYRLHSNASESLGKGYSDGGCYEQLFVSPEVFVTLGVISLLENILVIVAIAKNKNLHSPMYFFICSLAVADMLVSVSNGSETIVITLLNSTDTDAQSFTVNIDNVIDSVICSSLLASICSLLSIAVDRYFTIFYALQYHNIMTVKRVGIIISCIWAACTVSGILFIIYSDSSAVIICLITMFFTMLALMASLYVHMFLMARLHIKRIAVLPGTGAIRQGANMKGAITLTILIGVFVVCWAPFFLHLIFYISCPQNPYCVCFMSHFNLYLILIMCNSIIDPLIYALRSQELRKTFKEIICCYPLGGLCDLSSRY

Melanocortin receptor 5 = Melanocortin receptor 5 (Homo sapiens, UniProt P33032); assay: Displacement of [125I]NDP-MSH from human recombinant MC5 receptor expressed in Sf9 cells
Sequence of Melanocortin receptor 5 (P33032 whole entry): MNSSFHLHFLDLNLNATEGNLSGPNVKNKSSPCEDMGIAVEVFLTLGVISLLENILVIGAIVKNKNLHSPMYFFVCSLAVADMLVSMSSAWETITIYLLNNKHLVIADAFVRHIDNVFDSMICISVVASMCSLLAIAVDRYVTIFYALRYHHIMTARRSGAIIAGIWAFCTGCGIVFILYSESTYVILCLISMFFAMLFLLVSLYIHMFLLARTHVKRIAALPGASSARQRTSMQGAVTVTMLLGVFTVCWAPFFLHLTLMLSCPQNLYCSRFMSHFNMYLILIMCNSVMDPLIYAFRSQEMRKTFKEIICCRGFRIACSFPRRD

Sequence of Melanocyte-stimulating hormone receptor (Q01727 whole entry): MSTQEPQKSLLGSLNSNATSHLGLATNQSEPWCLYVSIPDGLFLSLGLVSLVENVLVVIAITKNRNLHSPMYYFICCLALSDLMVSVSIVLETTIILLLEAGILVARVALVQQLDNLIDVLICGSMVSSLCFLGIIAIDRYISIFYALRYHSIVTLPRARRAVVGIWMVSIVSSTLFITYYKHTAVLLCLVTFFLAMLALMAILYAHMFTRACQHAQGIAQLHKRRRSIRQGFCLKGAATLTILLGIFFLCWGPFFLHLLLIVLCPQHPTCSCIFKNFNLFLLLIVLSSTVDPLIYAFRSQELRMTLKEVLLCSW

| Compound | Ki [1] | Ki (Melanocortin receptor 3) | Ki (Melanocortin receptor 4) | Ki (Melanocortin receptor 5) |
| --- | --- | --- | --- | --- |
| COc1cc(O)ccc1/C=C/CN(C(=O)CCCc1c[nH]c2ccccc12)C1CCC(CC2CCC(N)CC2)CC1 (stereo in doubt; form 1) | 2.9 µM | 37 µM | 6.4 µM | 7.6 µM |
| NCCCCCN(C(=O)COc1ccc2ccccc2c1)C1CCC2(CC=CCC2)CC1 (stereo not given) | 7.4 µM | 3.7 µM | 5.9 µM | 8 µM |
| NCCN(C(=O)[C@H](N)Cc1ccc(Cl)cc1)C1CCC2(CCCCC2)CC1 | 3.7 µM | 1.7 µM | 2.4 µM | 3.2 µM |
| NC1CCC(CC2CCC(N(Cc3ccccc3Cl)C(=O)CCCc3c(Cc4ccc(O)cc4)[nH]c4ccccc34)CC2)CC1 (stereo not given) | 6.6 µM | 26 µM | 14 µM | 97 µM |
| CC(C)N(CCCCN)C(=O)c1c[nH]c2ccccc12 | 106 µM | 112 µM | 222 µM | 279 µM |
| CC1CC(CC2CCC(N(C/C(Cl)=C/c3ccccc3)C(=O)CCCc3c[nH]c4ccccc34)C(C)C2)CCC1N (stereo in doubt; form 1) | 5.6 µM | 64 µM | 7.7 µM | 9.1 µM |
| NCCCCN(Cc1ccccc1)C(=O)CCCc1c[nH]c2ccccc12 | 12 µM | 38 µM | 17 µM | 20 µM |
| NC1CCC(CC2CCC(N(C/C=C/c3ccccc3)C(=O)CCCc3c[nH]c4ccccc34)CC2)CC1 (stereo not given) | 2.7 µM | 16 µM | 9.2 µM | 7.7 µM |
| N[C@H]1CC[C@H](NC(=O)N[C@H]2CC[C@H](N(Cc3ccccc3)C(=O)CCCc3c[nH]c4ccccc34)CC2)CC1 | 11 µM | 99 µM | 25 µM | 176 µM |
| N[C@@H]1CCCC[C@H]1N(C/C=C/c1ccccc1)C(=O)CCCc1c[nH]c2ccccc12 | 12 µM | 62 µM | 116 µM | 555 µM |
| NC1CCC(CC2CCC(N(Cc3ccncc3)C(=O)CCCc3c[nH]c4ccccc34)CC2)CC1 (stereo in doubt; form 2) | 6.3 µM | 172 µM | 5.6 µM | 96 µM |
| NCc1ccc(CN(Cc2ccc3ccccc3c2)C(=O)CCCc2c[nH]c3ccccc23)cc1 | 4 µM | 40 µM | 11 µM | 17 µM |
| N=C(N)NC1CCC(CC2CCC(N(C/C=C/c3ccccc3)C(=O)CCCc3c[nH]c4ccccc34)CC2)CC1 (stereo not given) | 3.5 µM | 23 µM | 38 µM | 37 µM |
| NCCCCN(C/C=C/c1ccccc1)C(=O)CCc1c[nH]c2ccccc12 | 8.3 µM | 67 µM | 18 µM | 10 µM |
| NC1CCCC(NC(=O)NC2CCCC(N(Cc3ccccc3)C(=O)CCCc3c(Cc4ccc(O)cc4)[nH]c4ccccc34)C2)C1 (stereo not given) | 2.9 µM | 25 µM | 6.5 µM | 23 µM |
| NCCN(C/C=C/c1ccccc1)C(=O)CCc1c[nH]c2ccccc12 | 17 µM | 51 µM | 106 µM | 13 µM |
| NCCCN(C(=O)c1c[nH]c2ccccc12)C1CCc2ccccc2C1 (stereo not given) | 4.8 µM | 131 µM | 74 µM | 23 µM |
| NCCCCCN(Cc1ccccc1)C(=O)[C@@H](N)Cc1ccc2ccccc2c1 | 10 µM | 39 µM | 21 µM | 34 µM |
| COc1ccc(CN(C(=O)CCCc2c[nH]c3ccccc23)C2CCC(CC3CCC(N)CC3)CC2)cc1Br (stereo not given) | 2.9 µM | 9.3 µM | 4.8 µM | 278 µM |
| N[C@H]1CC[C@H](NC(=O)NC2CCCC(N(Cc3ccccc3)C(=O)CCCc3c[nH]c4ccccc34)C2)CC1 (stereo not given in full) | 2.7 µM | 59 µM | 7.3 µM | 37 µM |
| CSc1ccc(CN(C(=O)CCCc2c[nH]c3ccccc23)C2CCC(CC3CCC(N)CC3)CC2)cc1 (stereo not given) | 3.2 µM | 249 µM | 4.3 µM | 85 µM |
| NCCCCCCN(Cc1ccccc1)C(=O)CCCc1c[nH]c2ccccc12 | 13 µM | 43 µM | 3.4 µM | 3.8 µM |
| NCCCCCN(Cc1ccc2c(c1)OCO2)C(=O)CCCc1c[nH]c2ccccc12 | 5.5 µM | 38 µM | 12 µM | 23 µM |
| N[C@H]1CC[C@H](N(C/C(Cl)=C/c2ccccc2)C(=O)CCCc2c[nH]c3ccccc23)CC1 | 2.8 µM | 10 µM | 3.2 µM | 10 µM |
| NCCCCCN(C/C=C\c1ccccc1)C(=O)CCCc1c[nH]c2ccccc12 | 3 µM | 36 µM | 16 µM | 2.2 µM |

These reach a lower Ki [1]. Values come first.

| Ki [1] | Ki (Melanocortin receptor 3) | Ki (Melanocortin receptor 4) | Ki (Melanocortin receptor 5) | Compound |
| --- | --- | --- | --- | --- |
| 1.3 µM | 31 µM | 2.1 µM | 5 µM | CC1CC(CC2CCC(N(Cc3ccccc3)C(=O)CCCc3c[nH]c4ccccc34)C(C)C2)CCC1N (stereo in doubt; form 5) |
| 1 µM | 21 µM | 3.3 µM | 7.8 µM | C=C(Br)CN(C(=O)CCCc1c[nH]c2ccccc12)C1CCC(CC2CCC(N)CC2)CC1 (stereo in doubt; form 3) |
| 2.5 µM | 33 µM | 6.4 µM | 10 µM | NCCCN(C/C=C/c1ccccc1)C(=O)Cc1ccc2ccccc2c1 |
| 1.2 µM | 19 µM | 3.2 µM | 4.9 µM | C=C(Br)CN(C(=O)CCCc1c[nH]c2ccccc12)C1CCC(CC2CCC(N)CC2)CC1 (stereo in doubt; form 1) |
| 1.6 µM | 33 µM | 2.5 µM | 11 µM | NCC1CCC(CN(C/C(Cl)=C/c2ccccc2)C(=O)CCCc2c[nH]c3ccccc23)CC1 (stereo not given) |
| 2.3 µM | 36 µM | 3.7 µM | 2.1 µM | NCCCCCCN(Cc1ccccc1)C(=O)CCCc1c(Cc2ccc(O)cc2)[nH]c2ccccc12 |
| 1.2 µM | 121 µM | 2.3 µM | 15 µM | Cc1ccccc1CN(C(=O)CCCc1c[nH]c2ccccc12)C1CCC(CC2CCC(N)CC2)CC1 (stereo not given) |
| 2.1 µM | 24 µM | 2.3 µM | 4.3 µM | COc1cc(Cl)c(CN(C(=O)CCCc2c[nH]c3ccccc23)C2CCC(CC3CCC(N)CC3)CC2)cc1OC (stereo in doubt; form 1) |
| 1.4 µM | 25 µM | 2.4 µM | 21 µM | N#Cc1ccc(CN(C(=O)CCCc2c(Cc3ccc(O)cc3)[nH]c3ccccc23)C2CCC(CC3CCC(N)CC3)CC2)cc1 (stereo not given) |
| 2.6 µM | 44 µM | 7.3 µM | 9.7 µM | NCc1ccc(CN(C/C=C/c2ccccc2)C(=O)CCCc2c[nH]c3ccccc23)cc1 |
| 1.6 µM | 27 µM | 5.3 µM | 22 µM | NC1CCC(CC2CCC(N(Cc3c(Cl)cccc3Cl)C(=O)CCCc3c(Cc4ccc(O)cc4)[nH]c4ccccc34)CC2)CC1 (stereo not given) |
| 2.5 µM | 27 µM | 4.4 µM | 18 µM | NCC1CCC(CN(Cc2ccccc2)C(=O)CCCc2c[nH]c3ccccc23)CC1 (stereo not given) |
| 1.6 µM | 62 µM | 3.7 µM | 42 µM | NC1CCC(CC2CCC(N(C/C(Cl)=C/c3ccccc3)C(=O)COc3ccc4ccccc4c3)CC2)CC1 (stereo in doubt; form 8) |
| 0.87 µM | 22 µM | 3.2 µM | 4.8 µM | CC1CC(CC2CCC(N(Cc3ccccc3)C(=O)CCCc3c[nH]c4ccccc34)C(C)C2)CCC1N (stereo in doubt; form 2) |
| 1.7 µM | 6.6 µM | 3.7 µM | 6.9 µM | CC1CC(CC2CCC(N(Cc3ccccc3)C(=O)CCCc3c[nH]c4ccccc34)C(C)C2)CCC1N (stereo in doubt; form 3) |
| 0.63 µM | 8.3 µM | 1.9 µM | 11 µM | COc1cc(Cl)c(CN(C(=O)CCCc2c(Cc3ccc(O)cc3)[nH]c3ccccc23)C2CCC(CC3CCC(N)CC3)CC2)cc1OC (stereo not given) |
| 1.4 µM | 29 µM | 5.5 µM | 9.4 µM | C=C(Br)CN(C(=O)CCCc1c[nH]c2ccccc12)C1CCC(CC2CCC(N)CC2)CC1 (stereo in doubt; form 2) |
| 1.9 µM | 22 µM | 3.5 µM | 6.7 µM | NC1CCC(CC2CCC(N(C/C(Cl)=C/c3ccccc3)C(=O)COc3ccc4ccccc4c3)CC2)CC1 (stereo in doubt; form 5) |
| 2 µM | 47 µM | 5 µM | 5.1 µM | NCCCCCN(Cc1ccccc1)C(=O)CCCc1c(Cc2ccc(O)cc2)[nH]c2ccccc12 |
| 1.9 µM | 23 µM | 2.4 µM | 11 µM | COc1ccc(CN(C(=O)CCCc2c(Cc3ccc(O)cc3)[nH]c3ccccc23)C2CCC(CC3CCC(N)CC3)CC2)cc1OC (stereo not given) |
| 2.5 µM | 25 µM | 2.6 µM | 7.2 µM | NC1CCC(CC2CCC(N(Cc3c(Cl)cccc3Cl)C(=O)CCCc3c[nH]c4ccccc34)CC2)CC1 (stereo not given) |
| 0.61 µM | 21 µM | 6 µM | 3.2 µM | NC1CCC(CC2CCC(N(C/C(Cl)=C/c3ccccc3)C(=O)CCCc3c[nH]c4ccccc34)CC2)CC1 (stereo in doubt; form 5) |
| 0.77 µM | 5.4 µM | 2.3 µM | 28 µM | NCCCCCN(C/C(Cl)=C\c1ccccc1)C(=O)CCCc1c[nH]c2ccccc12 |
| 2.6 µM | 12 µM | 16 µM | 11 µM | CC(c1ccc(C(F)(F)F)cc1)N(CCCCCN)C(=O)Cc1c[nH]c2ccccc12 (stereo not given) |
| 1.5 µM | 20 µM | 1.6 µM | 3.9 µM | N#Cc1ccc(CN(C(=O)CCCc2c[nH]c3ccccc23)C2CCC(CC3CCC(N)CC3)CC2)cc1 (stereo in doubt; form 2) |
